From US6096770A, “Anthranilic acid analogs” (American Home Products Corporation, priority 1998, dated 2000)
Where two headings read alike, the source gives them in different places.

What was measured:
[1] = tested on: Isolated Rat Bladder Strips; test: Inhibition of Contractions in Isolated Rat Bladder Strips (15 mM KCl-enhanced contractile activity); assay type: tissue-based, Sprague-Dawley rats; settings: for IC50: 0.5 h, 15 mM KCl, 37 deg. C., pH 7.4, 30 minute challenge, read-out: IC50 Bladder (B): concentration required to elicit 50% inhibition of pre-drug contractile activity
Method: Sprague-Dawley rats (150-200 g) are rendered unconscious by CO2 asphyxiation and then euthanized by cervical dislocation. […] The bladder is opened and then cut into strips 1-2 mm in width and 7-10 mm in length. The strips are subsequently suspended in a 10 mL tissue bath under an initial resting tension of 1.5 g. The strips are held in place by two surgical clips one of which is attached to a fixed hook while the other is attached to an isometric force transducer. […] The carbachol is then washed out and the tissue allowed to relax to its resting level of activity. Following a further 30 min period of recovery an additional 15 mM KCl are introduced into the tissue bath. […] Following stabilization of this enhanced level of contractile activity, incremental increases in the concentration of test compound or vehicle are introduced into the tissue bath. Contractile activity is measured for each compound or vehicle concentration during the last minute of a 30 minute challenge.

Aorta = test: Inhibition of contractions in aorta (indication of selectivity, Table I); assay type: cell-based; settings: for IC50 (A)/IC50 (B): selectivity ratio aorta / bladder

Row | IC50 ([1]; isolated rat bladder strips) | SMILES | IC50 (A)/IC50 (B) (Aorta) | also measured
1 | 11 ± 4.04 µM | O=C(Nc1ccccc1C(=O)O)C1=C(c2ccc(C(F)(F)F)cc2)CCC1 [Example 1, 2-{[2-(4-Trifluoromethyl-phenyl)-cyclopent-1-enecarbonyl]-amino}-benzoic acid] | – | –
2 | – | O=C([O-])c1ccccc1NC(=O)c1ncoc1-c1ccc(C(F)(F)F)cc1.[Li+] [Example 3, 2-{[5-(4-Trifluoromethyl-phenyl)-oxazole-4-carbonyl]-amino}-benzoic acid lithium salt] | 0.42 | IC50 ([1]; Rattus norvegicus, pH 7.4, isolated rat bladder strips): 17.5 ± 12.4 µM; IC50 (Aorta): 7.35 ± 0.25 µM
3 | 11.9 ± 3.95 µM | Cc1noc(-c2ccc(C(F)(F)F)cc2)c1C(=O)Nc1ccccc1C(=O)O [Example 4, 2-{[3-Methyl-5-(4-trifluoromethyl-phenyl)-isoxazole-4-carbonyl]-amino}-benzoic acid] | – | –
4 | – | COc1ccc(/C=C/C(=O)Nc2ccccc2C(=O)O)cc1OC [Tranilast, reference compound] | 1.08 | potency and bladder selectivity as smooth muscle relaxant (in words) ([1]; in vitro, Table 1): not to be a potent or bladder selective smooth muscle relaxant

Row | SMILES | IC50 ([1]; isolated rat bladder strips) | IC50 (A)/IC50 (B) (Aorta) | also measured
5 | O=C(O)c1ccccc1NC(=O)c1ncoc1-c1ccc(C(F)(F)F)cc1 [Example 2, 2-{[5-(4-Trifluoromethyl-phenyl)-oxazole-4-carbonyl]-amino}-benzoic acid] | 17.9 ± 5.8 µM | – | –
